Test results as given in the supplement of paper PMC4862054.

What was measured:
Conditions in all cases: incubation time: 72 h
BT-474 [1] = test: normalised response (% of control), CellTox Green; higher = less cell death (100 = DMSO, 0 = benzethonium chloride kill control)
Summary of the method: (§1)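 Values are normalised signals, each belonging to one concentration of the series. Breast cancer cells (20 µl suspension) were seeded into 384-well plates with compound at 5 concentrations in 10-fold steps over a compound-specific 10,000-fold range and incubated 72 h. Readouts were CellTox Green fluorescence (485/520 nm), then CellTiter-Glo luminescence after 10 min at room temperature, with each plate set to 0.1 % DMSO as 100 and a positive kill control as 0.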

BT-549 [2] = test: as above
Summary of the method: as §1

CAL-120 [3] = test: as above
Summary of the method: as §1

CAL-148 [4] = test: as above
Summary of the method: as §1

CAL-51 [5] = test: as above
Summary of the method: as §1

CAL-85-1 [6] = test: as above
Summary of the method: as §1

DU-4475 [7] = test: as above
Summary of the method: as §1

HCC1143 [8] = test: as above
Summary of the method: as §1

HCC1599 [9] = test: as above
Summary of the method: as §1

HCC1937 [10] = test: as above
Summary of the method: as §1

HDQ-P1 [11] = test: as above
Summary of the method: as §1

Hs578T [12] = test: as above
Summary of the method: as §1

MCF-10A [13] = test: as above
Summary of the method: as §1

MDA-MB-231 [14] = test: as above
Summary of the method: as §1

MDA-MB-436 [15] = test: as above
Summary of the method: as §1

MDA-MB-453 [16] = test: as above
Summary of the method: as §1

MDA-MB-468 [17] = test: as above
Summary of the method: as §1

MFM-223 [18] = test: as above
Summary of the method: as §1

BT-474 [19] = test: normalised response (% of control), CellTiter-Glo; higher = more viable cells (100 = DMSO, 0 = benzethonium chloride kill control)
Protocol: (§2)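 DSRT, 72 h incubation, CellTox Green / CellTiter-Glo readout. Signal is normalised to DMSO and benzethonium chloride controls. Value is the normalised response at dose 3.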

BT-549 [20] = test: as above
Protocol: as §2

CAL-120 [21] = test: as above
Protocol: as §2

CAL-148 [22] = test: as above
Protocol: as §2

CAL-51 [23] = test: as above
Protocol: as §2

CAL-85-1 [24] = test: as above
Protocol: as §2

DU-4475 [25] = test: as above
Protocol: as §2

HCC1143 [26] = test: as above
Protocol: as §2

HCC1599 [27] = test: as above
Protocol: as §2

HCC1937 [28] = test: as above
Protocol: as §2

HDQ-P1 [29] = test: as above
Protocol: as §2

Hs578T [30] = test: as above
Protocol: as §2

MCF-10A [31] = test: as above
Protocol: as §2

MDA-MB-231 [32] = test: as above
Protocol: as §2

MDA-MB-436 [33] = test: as above
Protocol: as §2

MDA-MB-453 [34] = test: as above
Protocol: as §2

MDA-MB-468 [35] = test: as above
Protocol: as §2

MFM-223 [36] = test: as above
Protocol: as §2

SK-BR-3 = test: as above
Protocol: as §2

SMILES	normalised response (BT-474 [1]) [%]	normalised response (BT-549 [2]) [%]	normalised response (CAL-120 [3]) [%]	normalised response (CAL-148 [4]) [%]	normalised response (CAL-51 [5]) [%]	normalised response (CAL-85-1 [6]) [%]	normalised response (DU-4475 [7]) [%]	normalised response (HCC1143 [8]) [%]	normalised response (HCC1599 [9]) [%]	normalised response (HCC1937 [10]) [%]	normalised response (HDQ-P1 [11]) [%]	normalised response (Hs578T [12]) [%]	normalised response (MCF-10A [13]) [%]	normalised response (MDA-MB-231 [14]) [%]	normalised response (MDA-MB-436 [15]) [%]	normalised response (MDA-MB-453 [16]) [%]	normalised response (MDA-MB-468 [17]) [%]	normalised response (MFM-223 [18]) [%]	normalised response (BT-474 [19]) [%]	normalised response (BT-549 [20]) [%]	normalised response (CAL-120 [21]) [%]	normalised response (CAL-148 [22]) [%]	normalised response (CAL-51 [23]) [%]	normalised response (CAL-85-1 [24]) [%]	normalised response (DU-4475 [25]) [%]	normalised response (HCC1143 [26]) [%]	normalised response (HCC1599 [27]) [%]	normalised response (HCC1937 [28]) [%]	normalised response (HDQ-P1 [29]) [%]	normalised response (Hs578T [30]) [%]	normalised response (MCF-10A [31]) [%]	normalised response (MDA-MB-231 [32]) [%]	normalised response (MDA-MB-436 [33]) [%]	normalised response (MDA-MB-453 [34]) [%]	normalised response (MDA-MB-468 [35]) [%]	normalised response (MFM-223 [36]) [%]	normalised response (SK-BR-3) [%]
COc1cc(Nc2ncc(F)c(Nc3ccc4c(n3)NC(=O)C(C)(C)O4)n2)cc(OC)c1OC [Tamatinib] (100 nM)	101	94.5	103	73.6	115	113	104	90.7	99.2	93.6	107	112	107	105	104	109	83.2	91.3	101	98.9	96.2	112	104	96.7	105	105	123	103	97.9	102	104	108	99	108	93.8	110	111
C[C@@]1(C(=O)Nc2ccc(F)nc2)CCCN1c1nc(Nc2cc(C3CC3)n[nH]2)c2cccn2n1 (100 nM)	95.3	90.2	100	96.3	104	85.8	94.4	87.5	98	103	89	89.5	76.1	78.5	99.2	95.8	71.9	104	79.5	86.5	82.9	102	106	74.9	82.2	91.9	82.8	90.7	64.2	92.7	28.7	79.8	86.9	80	87.8	84.5	83.2
FC(F)c1nc2ccccc2n1-c1nc(N2CCOCC2)nc(N2CCOCC2)n1 [ZSTK474] (100 nM)	102	111	102	100	102	108	105	115	101	64.3	101	102	85	110	101	85.6	97.3	102	85.3	80.4	101	94.7	92.6	99	97	99.9	98	87.7	83.4	92.4	93	91.1	88.5	86.8	96.9	97	72.9
C#Cc1cccc(Nc2ncnc3cc(OC)c(OCCCCCCC(=O)NO)cc23)c1 [CUDC-101] (100 nM)	97	115	84.2	82.4	82.4	93.8	97	111	103	89.5	109	73.6	101	70.3	–	101	106	103	91.8	105	93.3	95.5	62.1	78.5	96.3	90.9	105	93.4	84	94.7	65.4	90.9	96.8	60.1	74.1	78.2	84.2
C[C@@H]1CCN(C(=O)CC#N)C[C@@H]1N(C)c1ncnc2[nH]ccc12 [Tofacitinib] (50 nM)	103	94.2	99.7	90.6	113	99.7	102	104	116	123	114	93.4	105	104	97.8	103	127	107	102	104	99.8	114	88.1	109	106	106	105	96.5	104	109	101	104	98.7	102	110	110	104
COc1ncc(-c2ccc3nccc(-c4ccnnc4)c3c2)cc1NS(=O)(=O)c1ccc(F)cc1F (10 nM)	93.4	106	102	91.5	104	81.9	101	107	112	96.1	89.5	95	110	106	106	102	68.8	96.3	78.3	72.7	75.7	96.1	77.2	69.5	93.1	85.2	83.4	78.7	60.7	77.5	63.7	82	84.6	63.3	80.2	82.7	53
COC1=CC(c2cc3ccccc3[nH]2)=N/C1=C\c1[nH]c(C)cc1C [Obatoclax] (100 nM)	63	103	95	103	88.2	87.6	98.6	89.8	98.6	88.3	53.7	84.5	93.4	66.7	–	104	96.5	93.8	88.8	97.5	98.1	86	87.8	89.2	99.5	93.5	93	91.3	99.6	92.6	97.3	88.4	91.4	104	88.4	96.3	90.5
C[C@@H]1C=C2C(=O)O[C@@H]3CC[C@H](C1)[C@]23O [Galiellalactone] (500 nM)	99.7	89.4	103	99.8	115	93.5	105	73.3	116	100	110	105	104	114	–	104	126	96.2	102	101	106	120	109	100	103	109	101	107	103	104	109	110	101	105	101	110	108
